Experimental data published in patent US6410037B1, “Anti-pruritic compositions” (Roche Consumer Health AG, priority 1999, dated 2002).

Key:
[1] = test system: peritoneal mastocytes of rat; test: Histamine release by peritoneal mastocytes of rat stimulated by substance P (spectrofluorimetry with OPT); assay type: cell-based; settings: 10 μg/ml Ca-panthothenate and 7.5 μg/ml glycine, taken separately or together; substance P 10 μM
Procedure: Peritoneal mastocytes of rat were incubated with the test products and the substance P for 2 minutes at 37° C. in the following medium: sodium phosphate buffer 4 mM; potassium phosphate buffer 2.7 mM; NaCl 0.145 M; KCl 2.7 mM; CaCl2 0.9 mM; BSA (bovine serum albumin 0.175% (w/v). At the end of the incubation, histamine released by the mastocytes was quantified by spectrofluorimetry with ortho-phthalaldehyde (OPT) (R. Hakanson, A. I. Ronnberg and K. Sjolund, Analy. Biochem., 47,1972, pp. 356-370). The measurements were carried out by means of a multiplate spectrofluorimeter (Cytofluor 2350, MILLIPORE). Data groups (control and treated groups) were compared using a one-way analysis of variance (ANOVA 1, p<0.05), following by a Dunnett' test (p<0.05).

human skin tissue = test: Histamine release by human skin discs stimulated by substance P (ELISA); assay type: cell-based
Procedure: Test were carried out on peritoneal mastocytes of rat stimulated by the substance P (10 μM), or on human skin tissue.
The skin tissue assay system was prepared from normal adult skin collected after abdominal plastic surgery. The subject was a person (subject M1085). The skin tissue specimen was rinsed in Krebs bicarbonate solution consisting of: NaCl 118 mM; KCl 5.4 mM; NaH2PO4 1 mM; MgSO4 1.2 mM, CaCl2 1.9 mM; NaHCO3 25 mM and D-glucose 11.1 mM. Skin discs of about 8 mm of diameter were performed. Skin discs were cultured in RPMI 1640 medium supplemented with penicillin (100 UI/ml), streptomycin (110 μg/ml) and 2 mM glutamine. Skin discs were maintained at 37° C. in a humidified incubator under a 5% Co2/95% air atmosphere. Test products were incubated with the human skin discs and 100 μM of substance P for 2 hours at 37° C.
At the end of the incubation, histamine released by the human skin discs was quantified by ELISA (IMMUNOTECH). The results were expressed as pmoles of histamine released per gram of skin. Data groups (control and treated groups) were compared using a one-way analysis of variance (ANOVA 1, p<0.05), following by a Dunnett's test (p<0.05).

mastocytes = settings: cited from earlier work

Compound | Inhibition of histamine release (in words) [1] | Effect of addition of glycine to Ca-pantothenate on inhibition of histamine release (in words) (human skin tissue; glycine 75 μg/ml added to Ca-pantothenate 100 μg/ml) | Histamine release by mastocytes (in words) (mastocytes) | Inhibition of histamine release (in words) (human skin tissue; already at a concentration of 25 μg/ml)
NCC(=O)O [Glycine] | do not act as inhibitors | further improves such inhibition | inhibits histamine release by mastocytes | –
calcium pantothenate [Ca-pantothenate] | do not act as inhibitors | – | – | acts as inhibitor of the histamine release
